From the supplement of paper PMC10307832

Columns and labels:
Experiment in all cases: relative viability (nuclei count vs DMSO), 5 days (fraction); higher = more cells survive
ChaGo-K-1 = tested on: ChaGo-K-1
Method in brief: (§1)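 Relative viability divides the nuclei count in treated wells by that in vehicle wells. Lung cancer cell lines were seeded in 1536-well plates, dosed by pin tool the next day, and fixed and stained after 5 days in one step with final 0.05% Triton X-100, 1% formaldehyde and 1 ug/ml Hoechst. Dosing was a single drug or a fixed anchor-drug dose plus five library-drug doses (not always all listed) in √10 steps, and values are medians of duplicate plates imaged at 4×.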

EKVX = tested on: EKVX
Method in brief: as §1

EMC-BAC-2 = tested on: EMC-BAC-2
Method in brief: as §1

EPLC-272H = tested on: EPLC-272H
Method in brief: as §1

H3255 = tested on: H3255
Method in brief: as §1

HCC-15 = tested on: HCC-15
Method in brief: as §1

HCC-827 = tested on: HCC-827
Method in brief: as §1

LC-2-ad = tested on: LC-2-ad
Method in brief: as §1

LCLC-97TM1 = tested on: LCLC-97TM1
Method in brief: as §1

NCI-H1792 = tested on: NCI-H1792
Method in brief: as §1

NCI-H1793 = tested on: NCI-H1793
Method in brief: as §1

NCI-H1915 = tested on: NCI-H1915
Method in brief: as §1

NCI-H1944 = tested on: NCI-H1944
Method in brief: as §1

NCI-H1993 = tested on: NCI-H1993
Method in brief: as §1

NCI-H23 = tested on: NCI-H23
Method in brief: as §1

NCI-H322M = tested on: NCI-H322M
Method in brief: as §1

NCI-H460 = tested on: NCI-H460
Method in brief: as §1

NCI-H522 = tested on: NCI-H522
Method in brief: as §1

PC-14 = tested on: PC-14
Method in brief: as §1

SW 900 = tested on: SW 900
Method in brief: as §1

Compound: COCC1(CO)C(=O)C2CCN1CC2 (stereo not drawn) [PRIMA-1MET] + NC(=O)Nc1cc(-c2cccc(F)c2)sc1C(=O)N[C@H]1CCCNC1 [AZD7762] (partner 0.2 µM)
- relative viability (ChaGo-K-1; first compound 0.2 µM): 0.765
- relative viability (ChaGo-K-1; first compound 0.6325 µM): 0.794
- relative viability (ChaGo-K-1; first compound 2 µM): 0.819
- relative viability (ChaGo-K-1; first compound 6.325 µM): 0.85
- relative viability (ChaGo-K-1; first compound 20 µM): 0.779
- relative viability (EKVX; first compound 0.2 µM): 0.72
- relative viability (EKVX; first compound 2 µM): 0.524
- relative viability (EKVX; first compound 6.325 µM): 0.748
- relative viability (EKVX; first compound 20 µM): 0.378
- relative viability (EMC-BAC-2; first compound 0.2 µM): 1.34
- relative viability (EMC-BAC-2; first compound 0.6325 µM): 1.07
- relative viability (EMC-BAC-2; first compound 2 µM): 0.989
- relative viability (EMC-BAC-2; first compound 6.325 µM): 1.12
- relative viability (EMC-BAC-2; first compound 20 µM): 1.01
- relative viability (EPLC-272H; first compound 0.2 µM): 0.236
- relative viability (EPLC-272H; first compound 0.6325 µM): 0.123
- relative viability (EPLC-272H; first compound 2 µM): 0.178
- relative viability (EPLC-272H; first compound 6.325 µM): 0.262
- relative viability (EPLC-272H; first compound 20 µM): 0.147
- relative viability (H3255; first compound 0.2 µM): 0.945
- relative viability (H3255; first compound 0.6325 µM): 0.873
- relative viability (H3255; first compound 2 µM): 0.955
- relative viability (H3255; first compound 6.325 µM): 1.06
- relative viability (H3255; first compound 20 µM): 0.775
- relative viability (HCC-15; first compound 0.2 µM): 1.17
- relative viability (HCC-15; first compound 0.6325 µM): 1.22
- relative viability (HCC-15; first compound 2 µM): 1.4
- relative viability (HCC-15; first compound 6.325 µM): 1.26
- relative viability (HCC-15; first compound 20 µM): 1.16
- relative viability (HCC-827; first compound 0.2 µM): 0.206
- relative viability (HCC-827; first compound 0.6325 µM): 0.224
- relative viability (HCC-827; first compound 2 µM): 0.181
- relative viability (HCC-827; first compound 6.325 µM): 0.211
- relative viability (HCC-827; first compound 20 µM): 0.239
- relative viability (LC-2-ad; first compound 0.2 µM): 0.968
- relative viability (LC-2-ad; first compound 0.6325 µM): 0.806
- relative viability (LC-2-ad; first compound 2 µM): 0.669
- relative viability (LC-2-ad; first compound 6.325 µM): 0.932
- relative viability (LC-2-ad; first compound 20 µM): 0.791
- relative viability (LCLC-97TM1; first compound 0.2 µM): 0.268
- relative viability (LCLC-97TM1; first compound 0.6325 µM): 0.226
- relative viability (LCLC-97TM1; first compound 2 µM): 0.212
- relative viability (LCLC-97TM1; first compound 6.325 µM): 0.336
- relative viability (LCLC-97TM1; first compound 20 µM): 0.166
- relative viability (NCI-H1792; first compound 0.2 µM): 0.569
- relative viability (NCI-H1792; first compound 6.325 µM): 0.907
- relative viability (NCI-H1792; first compound 20 µM): 0.429
- relative viability (NCI-H1793; first compound 0.2 µM): 0.408
- relative viability (NCI-H1793; first compound 0.6325 µM): 0.651
- relative viability (NCI-H1793; first compound 6.325 µM): 0.685
- relative viability (NCI-H1793; first compound 20 µM): 0.382
- relative viability (NCI-H1915; first compound 0.2 µM): 0.745
- relative viability (NCI-H1915; first compound 0.6325 µM): 0.507
- relative viability (NCI-H1915; first compound 2 µM): 0.517
- relative viability (NCI-H1915; first compound 6.325 µM): 0.82
- relative viability (NCI-H1915; first compound 20 µM): 0.657
- relative viability (NCI-H1944; first compound 0.2 µM): 0.661
- relative viability (NCI-H1944; first compound 0.6325 µM): 0.43
- relative viability (NCI-H1944; first compound 2 µM): 0.381
- relative viability (NCI-H1944; first compound 6.325 µM): 0.533
- relative viability (NCI-H1944; first compound 20 µM): 0.511
- relative viability (NCI-H1993; first compound 0.2 µM): 0.476
- relative viability (NCI-H1993; first compound 2 µM): 0.726
- relative viability (NCI-H1993; first compound 6.325 µM): 0.783
- relative viability (NCI-H1993; first compound 20 µM): 0.716
- relative viability (NCI-H23; first compound 0.2 µM): 0.212
- relative viability (NCI-H23; first compound 0.6325 µM): 0.225
- relative viability (NCI-H23; first compound 2 µM): 0.231
- relative viability (NCI-H23; first compound 6.325 µM): 0.209
- relative viability (NCI-H23; first compound 20 µM): 0.102
- relative viability (NCI-H322M; first compound 0.2 µM): 0.657
- relative viability (NCI-H322M; first compound 0.6325 µM): 0.558
- relative viability (NCI-H322M; first compound 6.325 µM): 0.59
- relative viability (NCI-H322M; first compound 20 µM): 0.406
- relative viability (NCI-H460; first compound 0.2 µM): 0.705
- relative viability (NCI-H460; first compound 0.6325 µM): 0.382
- relative viability (NCI-H460; first compound 2 µM): 0.659
- relative viability (NCI-H460; first compound 6.325 µM): 0.703
- relative viability (NCI-H460; first compound 20 µM): 0.251
- relative viability (NCI-H522; first compound 0.2 µM): 0.788
- relative viability (NCI-H522; first compound 0.6325 µM): 0.823
- relative viability (NCI-H522; first compound 2 µM): 0.838
- relative viability (NCI-H522; first compound 6.325 µM): 0.598
- relative viability (NCI-H522; first compound 20 µM): 0.283
- relative viability (PC-14; first compound 0.2 µM): 0.407
- relative viability (PC-14; first compound 0.6325 µM): 0.386
- relative viability (PC-14; first compound 2 µM): 0.319
- relative viability (PC-14; first compound 6.325 µM): 0.387
- relative viability (PC-14; first compound 20 µM): 0.178
- relative viability (SW 900; first compound 0.2 µM): 0.553
- relative viability (SW 900; first compound 0.6325 µM): 0.632
- relative viability (SW 900; first compound 6.325 µM): 0.573
- relative viability (SW 900; first compound 20 µM): 0.101
